{"source": "patent US20170190671A1", "about": "“BIS(ARYL)CATECHOL DERIVATIVES AS HERBICIDES” (E I DU PONT DE NEMOURS AND COMPANY, priority 2014, published 2017)", "assay_in_all_cases": "Test C preemergence", "assay_type_in_all_cases": "in vivo", "key": {"[1]": {"tested_on": "barnyardgrass (Echinochloa crus-galli)", "settings": "Echinochloa crus-galli, pre-emergence, read-out: Plant response rating, Barnyardgrass", "in_short": "(§1)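 Seeds sown in a loam soil and sand blend were treated preemergence; plants in peat-moss/vermiculite medium were sprayed at the 1- to 4-leaf stage (2-18 cm). Chemicals were in a non-phytotoxic surfactant-containing solvent. After 13 to 15 days in a greenhouse, injury was visually rated against controls on a 0-100 scale.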"}, "[2]": {"tested_on": "blackgrass (Alopecurus myosuroides)", "settings": "Alopecurus myosuroides, pre-emergence, 336 h, scale 0 to 100, read-out: Plant response rating, Blackgrass", "in_short": "as §1"}, "corn (Zea mays)": {"tested_on": "corn (Zea mays)", "settings": "Zea mays, pre-emergence, 336 h, scale 0 to 100", "in_short": "as §1"}, "[3]": {"tested_on": "galium (catchweed bedstraw, Galium aparine)", "settings": "Galium, pre-emergence, 336 h, scale 0 to 100, read-out: Plant response rating, Galium", "in_short": "as §1"}, "[4]": {"tested_on": "giant foxtail (Setaria faberii)", "settings": "Setaria faberi, pre-emergence, 336 h, scale 0 to 100, read-out: Plant response rating, Foxtail, Giant", "in_short": "as §1"}, "[5]": {"tested_on": "johnsongrass (Sorghum halepense)", "settings": "Sorghum halepense, pre-emergence, 336 h, scale 0 to 100, read-out: Plant response rating, Johnsongrass", "in_short": "as §1"}, "[6]": {"tested_on": "lambsquarters (Chenopodium album)", "settings": "Chenopodium album, pre-emergence, 336 h, scale 0 to 100, read-out: Plant response rating, Lambsquarters", "in_short": "as §1"}, "[7]": {"tested_on": "large (Lg) crabgrass (Digitaria sanguinalis)", "settings": "Digitaria sanguinalis, pre-emergence, 336 h, scale 0 to 100, read-out: Plant response rating, Crabgrass, Large", "in_short": "as §1"}, "[8]": {"tested_on": "morningglory (Ipomoea coccinea)", "settings": "Ipomoea, pre-emergence, 336 h, scale 0 to 100, read-out: Plant response rating, Morningglory", "in_short": "as §1"}, "[9]": {"tested_on": "oilseed rape (Brassica napus)", "settings": "Brassica napus, pre-emergence, scale 0 to 100, read-out: Plant response rating, Oilseed Rape", "in_short": "as §1"}, "[10]": {"tested_on": "pigweed (Amaranthus retroflexus)", "settings": "Amaranthus retroflexus, pre-emergence, 336 h, scale 0 to 100, read-out: Plant response rating, Pigweed", "in_short": "as §1"}, "[11]": {"tested_on": "ragweed (common ragweed, Ambrosia elatior)", "settings": "Ambrosia artemisiifolia, pre-emergence, 336 h, scale 0 to 100, read-out: Plant response rating, Ragweed", "in_short": "as §1"}, "soybean (Glycine max)": {"tested_on": "soybean (Glycine max)", "settings": "Glycine max, pre-emergence, scale 0 to 100, read-out: Plant response rating, Soybean", "in_short": "as §1"}, "[12]": {"tested_on": "velvetleaf (Abutilon theophrasti)", "settings": "Abutilon theophrasti, pre-emergence, scale 0 to 100, read-out: Plant response rating, Velvetleaf", "in_short": "as §1"}, "[13]": {"tested_on": "winter wheat (Triticum aestivum)", "settings": "Triticum aestivum, pre-emergence, 336 h, scale 0 to 100, read-out: Plant response rating, Wheat", "in_short": "as §1"}, "[14]": {"tested_on": "yellow nutsedge (Cyperus esculentus)", "settings": "Cyperus, pre-emergence, 336 h, scale 0 to 100, read-out: Plant response rating, Nutsedge, Yellow", "in_short": "as §1"}}}
{"compound": "Clc1cnc(Oc2cccc(Br)c2Oc2ncc(Cl)cn2)nc1", "note": "[Compound 19, 2,2′-[[3-bromo-1,2-phenylene]bis(oxy)]bis[5-chloropyrimidine]]", "values": [{"measurement": "pest or weed control at 31 g/ha", "setting": "[1]; 31 g ai/ha, preemergence, scale 0 to 100", "value": 55, "unit": "%"}, {"measurement": "pest or weed control at 62 g/ha", "setting": "[1]; 62 g ai/ha, preemergence, scale 0 to 100", "value": 100, "unit": "%"}, {"measurement": "pest or weed control at 125 g/ha", "setting": "[1]; 125 g ai/ha, preemergence, scale 0 to 100", "value": 100, "unit": "%"}, {"measurement": "pest or weed control at 16 g/ha", "setting": "[1]; Preemergence, 16 g ai/ha, scale 0 to 100 (0 no effect, 100 complete control)", "value": 15, "unit": "%"}, {"measurement": "pest or weed control at 31 g/ha", "setting": "[2]; 31 g ai/ha, preemergence", "value": 40, "unit": "%"}, {"measurement": "pest or weed control at 62 g/ha", "setting": "[2]; 62 g ai/ha, preemergence", "value": 90, "unit": "%"}, {"measurement": "pest or weed control at 125 g/ha", "setting": "[2]; 125 g ai/ha, preemergence", "value": 95, "unit": "%"}, {"measurement": "pest or weed control at 16 g/ha", "setting": "[2]; Preemergence, 16 g ai/ha", "value": 30, "unit": "%"}, {"measurement": "Corn plant response rating (crop injury, 0 = no effect, 100 = complete kill) at 31 g/ha", "setting": "corn (Zea mays); 31 g ai/ha, preemergence", "value": 25, "unit": "%"}, {"measurement": "Corn plant response rating (crop injury, 0 = no effect, 100 = complete kill) at 62 g/ha", "setting": "corn (Zea mays); 62 g ai/ha, preemergence", "value": 80, "unit": "%"}, {"measurement": "Corn plant response rating (crop injury, 0 = no effect, 100 = complete kill) at 125 g/ha", "setting": "corn (Zea mays); 125 g ai/ha, preemergence", "value": 90, "unit": "%"}, {"measurement": "Corn plant response rating (crop injury, 0 = no effect, 100 = complete kill) at 16 g/ha", "setting": "corn (Zea mays); Preemergence, 16 g ai/ha", "value": 5, "unit": "%"}, {"measurement": "pest or weed control at 31 g/ha", "setting": "[3]; 31 g ai/ha, preemergence", "value": 100, "unit": "%"}, {"measurement": "pest or weed control at 62 g/ha", "setting": "[3]; 62 g ai/ha, preemergence", "value": 100, "unit": "%"}, {"measurement": "pest or weed control at 125 g/ha", "setting": "[3]; 125 g ai/ha, preemergence", "value": 100, "unit": "%"}, {"measurement": "pest or weed control at 16 g/ha", "setting": "[3]; Preemergence, 16 g ai/ha", "value": 85, "unit": "%"}, {"measurement": "pest or weed control at 31 g/ha", "setting": "[4]; 31 g ai/ha, preemergence", "value": 100, "unit": "%"}, {"measurement": "pest or weed control at 62 g/ha", "setting": "[4]; 62 g ai/ha, preemergence", "value": 100, "unit": "%"}, {"measurement": "pest or weed control at 125 g/ha", "setting": "[4]; 125 g ai/ha, preemergence", "value": 100, "unit": "%"}, {"measurement": "pest or weed control at 16 g/ha", "setting": "[4]; Preemergence, 16 g ai/ha", "value": 60, "unit": "%"}, {"measurement": "pest or weed control at 31 g/ha", "setting": "[5]; 31 g ai/ha, preemergence", "value": 50, "unit": "%"}, {"measurement": "pest or weed control at 62 g/ha", "setting": "[5]; 62 g ai/ha, preemergence", "value": 85, "unit": "%"}, {"measurement": "pest or weed control at 125 g/ha", "setting": "[5]; 125 g ai/ha, preemergence", "value": 98, "unit": "%"}, {"measurement": "pest or weed control at 16 g/ha", "setting": "[5]; Preemergence, 16 g ai/ha", "value": 35, "unit": "%"}, {"measurement": "pest or weed control at 31 g/ha", "setting": "[6]; 31 g ai/ha, preemergence", "value": 100, "unit": "%"}, {"measurement": "pest or weed control at 62 g/ha", "setting": "[6]; 62 g ai/ha, preemergence", "value": 100, "unit": "%"}, {"measurement": "pest or weed control at 125 g/ha", "setting": "[6]; 125 g ai/ha, preemergence", "value": 100, "unit": "%"}, {"measurement": "pest or weed control at 16 g/ha", "setting": "[6]; Preemergence, 16 g ai/ha", "value": 98, "unit": "%"}, {"measurement": "pest or weed control at 31 g/ha", "setting": "[7]; 31 g ai/ha, preemergence", "value": 100, "unit": "%"}, {"measurement": "pest or weed control at 62 g/ha", "setting": "[7]; 62 g ai/ha, preemergence", "value": 100, "unit": "%"}, {"measurement": "pest or weed control at 125 g/ha", "setting": "[7]; 125 g ai/ha, preemergence", "value": 100, "unit": "%"}, {"measurement": "pest or weed control at 16 g/ha", "setting": "[7]; Preemergence, 16 g ai/ha", "value": 98, "unit": "%"}, {"measurement": "pest or weed control at 31 g/ha", "setting": "[8]; 31 g ai/ha, preemergence", "value": 45, "unit": "%"}, {"measurement": "pest or weed control at 62 g/ha", "setting": "[8]; 62 g ai/ha, preemergence", "value": 90, "unit": "%"}, {"measurement": "pest or weed control at 125 g/ha", "setting": "[8]; 125 g ai/ha, preemergence", "value": 100, "unit": "%"}, {"measurement": "pest or weed control at 16 g/ha", "setting": "[8]; Preemergence, 16 g ai/ha", "value": 5, "unit": "%"}, {"measurement": "plant injury at 31 g/ha", "setting": "[9]; 31 g ai/ha, preemergence", "value": 85, "unit": "%"}, {"measurement": "plant injury at 62 g/ha", "setting": "[9]; 62 g ai/ha, preemergence", "value": 98, "unit": "%"}, {"measurement": "plant injury at 125 g/ha", "setting": "[9]; 125 g ai/ha, preemergence", "value": 100, "unit": "%"}, {"measurement": "plant injury at 16 g/ha", "setting": "[9]; Preemergence, 16 g ai/ha", "value": 30, "unit": "%"}, {"measurement": "pest or weed control at 31 g/ha", "setting": "[10]; 31 g ai/ha, preemergence", "value": 100, "unit": "%"}, {"measurement": "pest or weed control at 62 g/ha", "setting": "[10]; 62 g ai/ha, preemergence", "value": 100, "unit": "%"}, {"measurement": "pest or weed control at 125 g/ha", "setting": "[10]; 125 g ai/ha, preemergence", "value": 100, "unit": "%"}, {"measurement": "pest or weed control at 16 g/ha", "setting": "[10]; Preemergence, 16 g ai/ha", "value": 100, "unit": "%"}, {"measurement": "pest or weed control at 31 g/ha", "setting": "[11]; 31 g ai/ha, preemergence", "value": 30, "unit": "%"}, {"measurement": "pest or weed control at 62 g/ha", "setting": "[11]; 62 g ai/ha, preemergence", "value": 55, "unit": "%"}, {"measurement": "pest or weed control at 125 g/ha", "setting": "[11]; 125 g ai/ha, preemergence", "value": 60, "unit": "%"}, {"measurement": "pest or weed control at 16 g/ha", "setting": "[11]; Preemergence, 16 g ai/ha", "value": 0, "unit": "%"}, {"measurement": "plant injury at 31 g/ha", "setting": "soybean (Glycine max); 31 g ai/ha, preemergence", "value": 50, "unit": "%"}, {"measurement": "plant injury at 62 g/ha", "setting": "soybean (Glycine max); 62 g ai/ha, preemergence", "value": 90, "unit": "%"}, {"measurement": "plant injury at 125 g/ha", "setting": "soybean (Glycine max); 125 g ai/ha, preemergence", "value": 80, "unit": "%"}, {"measurement": "plant injury at 16 g/ha", "setting": "soybean (Glycine max); Preemergence, 16 g ai/ha", "value": 25, "unit": "%"}, {"measurement": "pest or weed control at 31 g/ha", "setting": "[12]; 31 g ai/ha, preemergence", "value": 98, "unit": "%"}, {"measurement": "pest or weed control at 62 g/ha", "setting": "[12]; 62 g ai/ha, preemergence", "value": 100, "unit": "%"}, {"measurement": "pest or weed control at 125 g/ha", "setting": "[12]; 125 g ai/ha, preemergence", "value": 100, "unit": "%"}, {"measurement": "pest or weed control at 16 g/ha", "setting": "[12]; Preemergence, 16 g ai/ha", "value": 60, "unit": "%"}, {"measurement": "plant injury at 31 g/ha", "setting": "[13]; 31 g ai/ha, preemergence", "value": 25, "unit": "%"}, {"measurement": "plant injury at 62 g/ha", "setting": "[13]; 62 g ai/ha, preemergence", "value": 40, "unit": "%"}, {"measurement": "plant injury at 125 g/ha", "setting": "[13]; 125 g ai/ha, preemergence", "value": 85, "unit": "%"}, {"measurement": "plant injury at 16 g/ha", "setting": "[13]; Preemergence, 16 g ai/ha", "value": 0, "unit": "%"}, {"measurement": "pest or weed control at 31 g/ha", "setting": "[14]; 31 g ai/ha, preemergence", "value": 5, "unit": "%"}, {"measurement": "pest or weed control at 62 g/ha", "setting": "[14]; 62 g ai/ha, preemergence", "value": 20, "unit": "%"}, {"measurement": "pest or weed control at 125 g/ha", "setting": "[14]; 125 g ai/ha, preemergence", "value": 55, "unit": "%"}, {"measurement": "pest or weed control at 16 g/ha", "setting": "[14]; Preemergence, 16 g ai/ha", "value": 0, "unit": "%"}]}
